Measurements as given in US8722849B2, “Polypeptides” (Novo Nordisk A/S, priority 2011, dated 2014).
≈ marks a conversion by molar mass, not a printed value. Where two headings read alike, the source gives them in different places. Starred links: 1 amine or outer side, 2 acyl side, 3 side chain; linkers in the order of their positions; H or OH if unused. Positions of bridges follow the written chain, without caps; N, C: chain ends. Residues, ends and D or L forms follow the SMILES beside them. *: point of attachment. C20 diacid = O=C(O)CCCCCCCCCCCCCCCCCCC(=O)*; γGlu = O=C(O)[C@H](CCC(=O)[*:2])N[*:1]

Tests used:
[1] = target: T1, human amylin receptor (amylin 3(a) receptor: human calcitonin receptor + RAMP-3) (Homo sapiens, UniProt O60896+P30988); experiment: Assay (II)a functional CRE-luciferase assay, human amylin receptor; format: cell-based
T1 construct: expressed in transfected cells; host or cells: BHK570
T1 sequence (P30988 25-474): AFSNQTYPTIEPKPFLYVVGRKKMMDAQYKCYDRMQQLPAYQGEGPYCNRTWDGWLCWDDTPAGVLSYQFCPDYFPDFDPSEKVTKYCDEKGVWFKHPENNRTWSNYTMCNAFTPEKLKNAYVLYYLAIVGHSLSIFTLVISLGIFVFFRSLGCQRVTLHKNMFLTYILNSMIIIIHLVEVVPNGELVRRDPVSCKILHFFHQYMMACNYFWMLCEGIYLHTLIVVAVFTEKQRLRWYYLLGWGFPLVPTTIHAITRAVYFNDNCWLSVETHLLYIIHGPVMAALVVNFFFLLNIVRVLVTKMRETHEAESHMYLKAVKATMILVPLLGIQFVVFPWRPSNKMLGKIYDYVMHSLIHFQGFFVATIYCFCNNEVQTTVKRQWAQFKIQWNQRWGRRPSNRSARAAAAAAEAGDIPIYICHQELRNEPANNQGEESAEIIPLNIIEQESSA
T1 sequence (O60896 24-148 partner): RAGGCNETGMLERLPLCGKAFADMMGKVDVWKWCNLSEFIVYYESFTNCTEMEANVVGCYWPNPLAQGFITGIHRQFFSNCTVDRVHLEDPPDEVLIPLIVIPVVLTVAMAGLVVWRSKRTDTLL

[2] = target: T2, human calcitonin receptor (Homo sapiens, UniProt P30988); experiment: Assay (II)a functional CRE-luciferase assay, human calcitonin receptor; format: cell-based
T2 construct: expressed in transfected cells; host or cells: BHK570
T2 sequence (P30988 25-474): T1 sequence (P30988 25-474)

[3] = Assay (III) ThT fibrillation assay for physical stability; format: physicochemical
In short: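 Freshly prepared formulations, pH-adjusted, with 1 μM ThT; four or eight replicates incubated at 37 °C under 960 rpm orbital shaking. Fluorescence (ex 444/em 485 nm) read every 20 min; […]. Peptide concentration measured by RP-HPLC before and after the run.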

[4] = Assay (IV) determination of solubility; format: physicochemical
In short: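 Polypeptide in water (~500 nmol/ml) mixed 1:1 with 100 mM glycylglycine (pH 3.0–5.0) or bistrispropane (pH 6.0–8.0) buffers. Held 18 hours at room temperature, then centrifuged. Polypeptide remaining in solution quantified by HPLC.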

[5] = bistrispropane buffer, pH 6, pH 6.0, read-out: Solubility pH 6.0
[6] = bistrispropane buffer, pH 6.5, pH 6.5, read-out: Solubility pH 6.5
[7] = bistrispropane buffer, pH 7, pH 7.0, read-out: Solubility pH 7.0
[8] = bistrispropane buffer, pH 7.5, pH 7.5, read-out: Solubility pH 7.5
[9] = glycylglycine buffer, pH 3, pH 3.0, read-out: Solubility pH 3.0
[10] = glycylglycine buffer, pH 4, pH 4.0, read-out: Solubility pH 4.0
[11] = glycylglycine buffer, pH 5, pH 5.0, read-out: Solubility pH 5.0
[12] = Table 2, BHK amylin 3(a)-receptor/CRE-luc cells
[13] = Table 7, human calcitonin (CTa) receptor
[14] = bistrispropane buffer, pH 8, pH 8.0, read-out: Solubility pH 8.0
[15] = glycylglycine buffer, pH 4, pH 4.0, 18 hours at room temperature, Table 2, read-out: Solubility pH 4.0

Row | ThT pH 4.0 lag time (h) ([3]; ThT fibrillation assay) | solubility at 18 h [4, 5] | solubility at 18 h [4, 6] | solubility at 18 h [4, 7] | solubility at 18 h [4, 8] | solubility at 18 h [4, 9] | solubility at 18 h [4, 10] | solubility at 18 h [4, 11] | EC50 [1, 12] | EC50 [2, 13] | ThT pH 4.0 lag time ([3]; ThT fibrillation assay) | solubility at 18 h [4, 14] | solubility at 18 h [4, 15] | SMILES | other results
1 | 1.7 h | 2 µM (≈ 9.02 µg/mL) | 1 µM (≈ 4.51 µg/mL) | 1 µM (≈ 4.51 µg/mL) | 1 µM (≈ 4.51 µg/mL) | > 200 µM | > 200 µM | > 200 µM |  |  |  |  |  | CC[C@H](C)[C@H](NC(=O)[C@@H]1CCCN1C(=O)CNC(=O)[C@H](Cc1ccccc1)NC(=O)[C@H](CC(N)=O)NC(=O)[C@H](CC(N)=O)NC(=O)[C@H](CO)NC(=O)[C@H](CO)NC(=O)[C@H](Cc1c[nH]cn1)NC(=O)[C@@H](NC(=O)[C@H](CC(C)C)NC(=O)[C@H](Cc1ccccc1)NC(=O)[C@H](CC(N)=O)NC(=O)[C@H](C)NC(=O)[C@H](CC(C)C)NC(=O)[C@H](CCCNC(=N)N)NC(=O)[C@H](CCC(N)=O)NC(=O)[C@@H](NC(=O)[C@H](C)NC(=O)[C@@H]1CSSC[C@H](NC(=O)[C@H](CCCNC(=N)N)NC(=O)CNC(=O)CC[C@H](NC(=O)CCCCCCCCCCCCCCCCCCC(=O)O)C(=O)O)C(=O)N[C@@H](CC(N)=O)C(=O)N[C@@H]([C@@H](C)O)C(=O)N[C@@H](C)C(=O)N[C@@H]([C@@H](C)O)C(=O)N1)[C@@H](C)O)C(C)C)C(=O)N[C@@H](CC(C)C)C(=O)N1CCC[C@H]1C(=O)N1CCC[C@H]1C(=O)N[C@H](C(=O)N[C@@H](CC(N)=O)C(=O)N[C@H](C(=O)NCC(=O)N[C@@H](CO)C(=O)N[C@@H](Cc1c[nH]cn1)C(=O)N[C@H](C(=O)N[C@@H](Cc1ccc(O)cc1)C(N)=O)[C@@H](C)O)C(C)C)[C@@H](C)O [Example 99, N-alpha-[(S)-4-Carboxy-4-(19-carboxynonadecanoylamino)butyryl]-Gly-[Arg1,His35]-pramlintide] ({C20 diacid-γGlu}-GRCNTATCATQRLANFLVHSSNNFGPILPPTNVGSHTY-NH2; disulfide 3-8 (inferred); C-terminus assumed) | EC50 ([1]; Table 11): 45 pM; EC50 ([2]; Table 11, read-out: CTa receptor human EC50): 87.5 pM; solubility at 18 h ([4]; pH 8.0, read-out: Solubility pH 8.0): 1 µM (≈ 4.51 µg/mL)
2 | >45 h | > 200 µM | > 200 µM | > 200 µM | > 200 µM | > 200 µM | > 200 µM | > 200 µM | 232 pM | 1130 pM | >45 h | > 200 µM | > 200 µM | CC[C@H](C)[C@H](NC(=O)[C@@H]1CCCN1C(=O)CNC(=O)[C@H](Cc1ccccc1)NC(=O)[C@H](CC(N)=O)NC(=O)[C@H](CCC(N)=O)NC(=O)[C@H](CO)NC(=O)[C@H](CO)NC(=O)[C@H](Cc1c[nH]cn1)NC(=O)[C@H](CCCNC(=N)N)NC(=O)[C@H](CC(C)C)NC(=O)[C@H](Cc1ccccc1)NC(=O)[C@H](CCC(=O)O)NC(=O)[C@H](C)NC(=O)[C@H](CC(C)C)NC(=O)[C@H](CCCNC(=N)N)NC(=O)[C@H](CCC(N)=O)NC(=O)[C@@H](NC(=O)[C@H](C)NC(=O)[C@@H]1CSSC[C@H](NC(=O)[C@H](CCC(=O)O)NC(=O)[C@H](CCCNC(=N)N)NC(=O)[C@H](CCC(=O)O)NC(=O)CC[C@H](NC(=O)CCCCCCCCCCCCCCCCCCC(=O)O)C(=O)O)C(=O)N[C@@H](CC(N)=O)C(=O)N[C@@H]([C@@H](C)O)C(=O)N[C@@H](C)C(=O)N[C@@H]([C@@H](C)O)C(=O)N1)[C@@H](C)O)C(=O)N[C@@H](CC(C)C)C(=O)N1CCC[C@H]1C(=O)N1CCC[C@H]1C(=O)N[C@H](C(=O)N[C@@H](CC(N)=O)C(=O)N[C@H](C(=O)NCC(=O)N[C@@H](CO)C(=O)N[C@@H](CC(N)=O)C(=O)N[C@H](C(=O)N1CCC[C@H]1C(N)=O)[C@@H](C)O)C(C)C)[C@@H](C)O [Example 161, N-alpha-[(S)-4-Carboxy-4-(19-carboxynonadecanoylamino)butyryl]-Glu-Arg-[Glu1,Glu14,Arg17,Gln21,Pro37]-pramlintide] ({C20 diacid-γGlu}-ERECNTATCATQRLAEFLRHSSQNFGPILPPTNVGSNTP-NH2; disulfide 4-9 (inferred); C-terminus assumed) | ThT pH 4.0 lag time ([3]; Table 8): >45 h; ThT pH 4.0 lag time ([3]; Table 9): >45 h; solubility at 18 h ([4]; bistrispropane buffer, pH 7, pH 7.0, 18 hours at room temperature, Table 3, read-out: Solubility pH 7.0): > 200 µM; solubility at 18 h ([4]; bistrispropane buffer, pH 7, pH 7.0, Table 8, read-out: Solubility pH 7.0): > 200 µM; solubility at 18 h ([4]; bistrispropane buffer, pH 7, pH 7.0, Table 9, read-out: Solubility pH 7.0): > 200 µM; solubility at 18 h ([4]; bistrispropane buffer, pH 7.5, pH 7.5, Table 9, read-out: Solubility pH 7.5): > 200 µM
3 | >45 h | > 200 µM | 73 µM (≈ 329 µg/mL) | 22 µM (≈ 99.1 µg/mL) | 46 µM (≈ 207 µg/mL) | > 200 µM | > 200 µM | > 200 µM | 129 pM | 114 pM | >45 h | 115 µM (≈ 518 µg/mL) | > 200 µM | CC[C@H](C)[C@H](NC(=O)[C@@H]1CCCN1C(=O)CNC(=O)[C@H](Cc1ccccc1)NC(=O)[C@H](CC(N)=O)NC(=O)[C@H](CC(N)=O)NC(=O)[C@H](CO)NC(=O)[C@H](CO)NC(=O)[C@H](Cc1c[nH]cn1)NC(=O)[C@H](Cc1c[nH]cn1)NC(=O)[C@H](CC(C)C)NC(=O)[C@H](Cc1ccccc1)NC(=O)[C@H](CCC(=O)O)NC(=O)[C@H](C)NC(=O)[C@H](CC(C)C)NC(=O)[C@H](CCCNC(=N)N)NC(=O)[C@H](CCC(N)=O)NC(=O)[C@@H](NC(=O)[C@H](C)NC(=O)[C@@H]1CSSC[C@H](NC(=O)[C@H](CCCCN)NC(=O)CC[C@H](NC(=O)CCCCCCCCCCCCCCCCCCC(=O)O)C(=O)O)C(=O)N[C@@H](CC(N)=O)C(=O)N[C@@H]([C@@H](C)O)C(=O)N[C@@H](C)C(=O)N[C@@H]([C@@H](C)O)C(=O)N1)[C@@H](C)O)C(=O)N[C@@H](CC(C)C)C(=O)N1CCC[C@H]1C(=O)N1CCC[C@H]1C(=O)N[C@H](C(=O)N[C@@H](CC(N)=O)C(=O)N[C@H](C(=O)NCC(=O)N[C@@H](Cc1c[nH]cn1)C(=O)N[C@@H](CC(N)=O)C(=O)N[C@H](C(=O)N[C@@H](Cc1ccc(O)cc1)C(N)=O)[C@@H](C)O)C(C)C)[C@@H](C)O [Example 115, N-alpha-[(S)-4-Carboxy-4-(19-carboxynonadecanoylamino)butyryl]-[Glu14,His17,His34]-pramlintide] ({C20 diacid-γGlu}-KCNTATCATQRLAEFLHHSSNNFGPILPPTNVGHNTY-NH2; disulfide 2-7 (inferred); C-terminus assumed) | 
4 | >45 h | > 200 µM | 73 µM (≈ 328 µg/mL) | 14 µM (≈ 62.9 µg/mL) | 31 µM (≈ 139 µg/mL) | > 200 µM | > 200 µM | > 200 µM | 382 pM | 113 pM | >45 h | 79 µM (≈ 355 µg/mL) | > 200 µM | CC[C@H](C)[C@H](NC(=O)[C@@H]1CCCN1C(=O)CNC(=O)[C@H](Cc1ccccc1)NC(=O)[C@H](CC(N)=O)NC(=O)[C@H](CC(N)=O)NC(=O)[C@H](CO)NC(=O)[C@H](CO)NC(=O)[C@H](Cc1c[nH]cn1)NC(=O)[C@H](Cc1c[nH]cn1)NC(=O)[C@H](CC(C)C)NC(=O)[C@H](Cc1ccccc1)NC(=O)[C@H](CCC(=O)O)NC(=O)[C@H](C)NC(=O)[C@H](CC(C)C)NC(=O)[C@H](CCCNC(=N)N)NC(=O)[C@H](CCC(N)=O)NC(=O)[C@@H](NC(=O)[C@H](C)NC(=O)[C@@H]1CSSC[C@H](NC(=O)[C@H](CCCCN)NC(=O)CC[C@H](NC(=O)CCCCCCCCCCCCCCCCCCC(=O)O)C(=O)O)C(=O)N[C@@H](CC(N)=O)C(=O)N[C@@H]([C@@H](C)O)C(=O)N[C@@H](C)C(=O)N[C@@H]([C@@H](C)O)C(=O)N1)[C@@H](C)O)C(=O)N[C@@H](CC(C)C)C(=O)N1CCC[C@H]1C(=O)N1CCC[C@H]1C(=O)N[C@H](C(=O)N[C@@H](CC(N)=O)C(=O)N[C@H](C(=O)NCC(=O)N[C@@H](CO)C(=O)N[C@@H](CC(N)=O)C(=O)N[C@@H](Cc1c[nH]cn1)C(=O)N[C@@H](Cc1ccc(O)cc1)C(N)=O)C(C)C)[C@@H](C)O [Example 114, N-alpha-[(S)-4-Carboxy-4-(19-carboxynonadecanoylamino)butyryl]-[Glu14,His17,His36]-pramlintide] ({C20 diacid-γGlu}-KCNTATCATQRLAEFLHHSSNNFGPILPPTNVGSNHY-NH2; disulfide 2-7 (inferred)) | 
